Structures can show the parent of a compound that is named as a salt.
Columns and labels:
steroid sulfatase = assay: inhibition of steroid sulfatase after dosing; type: in vivo
Procedure: (§1) In order to determine whether EMATE alone could enhance memory, four groups of rats (10 animals per group), were injected with EMATE (10 mg/Kg; IP), either four hours before the acquisition trial, or dally for 3, 10 or 15 days before the acquisition trial. Twenty-four hours following the acquisition trial crossover latency was determined. The dally dosage of EMATE was 10 mg/kg which inhibited the sulfatase enzyme for about three to four days.
Sulfatase inhibitor EMATE can effect the memory enhancement of peripherally administered DHEAS, a neurosteroid, by inhibiting the metabolism of DHEAS to DHEA. […] A single dose (10 mg/kg) can inhibit greater than 98% of sulfatase after 24 hours. After 10 days of treatment the sulfatase activity in the whole body (including liver, adrenal gland, ovary, uterus and brain) is inhibited. The administration of EMATE alone can alter the equilibrium between the endogenous sulfated and unsulfated forms of neurosteroids in such a way as to enhance memory.

[1] = test system: scopolamine-induced amnesia; assay: passive avoidance paradigm, reversal of scopolamine-induced amnesia (crossover latency); type: in vivo, rats
Procedure: Male rats weighing between 80 and 100 grams were purchased from Hilltop Lab Animals Inc. (Scottdale, Pa.) and housed in hanging wire mesh cages in groups of three with water and rat chow available ad libitum. The room in which the animals were housed was controlled for both temperature and humidity, there was a standard 12 hour, light/dark cycle. To assess memory, the Gemini Avoidance System (San Diego Instruments) was utilized in a standard passive avoidance paradigm. Briefly, the avoidance apparatus consisted of a box (53×53×32 cm) with two compartments connected by an opening with a sliding door. The room in which the rat was placed was brightly lit, while the other room was dark. Initially, the animals were allowed to explore the apparatus and were then removed. During the memory acquisition trial, animals were placed in the light compartment. When an animal entered the dark compartment, the sliding door closed and a mild foot shock (1mA; 1 sec.) was delivered. The rat was then removed from the apparatus and returned to its cage. Twenty-four hours later the rat was again placed in the light side of the apparatus and the time latency to crossing to the dark room recorded. […] The acquisition of memory for the foot shock was assessed as an increased latency period before entering the dark room on the second day. Significant differences in crossover latency were determined by statistical analysis utilizing one-way analysis of a variance with a Dunnett's test post hoc. Significant differences between groups were interpreted as differences in memory acquisition resulting from the various treatments.
To determine the effect of DHEAS on memory, one hour before the acquisition trial […] of ten animals were injected intraperitoneally (IP) with one of the following several doses of DHEAS (5, 10, 20, 30, 50, 70 mg/Kg/ml dissolved saline) or saline. All animals in a given group were administered the same dosage. […] Twenty-four hours later the rats were again placed in the apparatus and the time delay before the animals entered the dark compartment was recorded.
Twenty-four hours later, crossover latency (the time delay before the rats crossed to the dark compartment) for the groups was determined.
as §1

## C[C@]12CC[C@@H]3c4ccc(OS(N)(=O)=O)cc4CC[C@H]3[C@@H]1CCC2=O [EMATE, estrone - 3-sulfamate]
Steroid sulfatase; after 10 days of treatment
  sulfatase activity in the whole body (including liver, adrenal gland, ovary, uterus and brain): inhibited
Steroid sulfatase; dosage 10 mg/kg
  duration of inhibition of the sulfatase enzyme: about three to four
Steroid sulfatase; in vivo
  kind of steroid sulfatase inhibition: potent irreversible inhibitor
Steroid sulfatase; single dose 10 mg/kg, after 24 hours
  inhibition of sulfatase: greater than 98%
[1]; EMATE alone 10 mg/Kg IP daily for 10 and 15 days before acquisition trial
  reversal of scopolamine-induced amnesia: significant (p≤0.05) reversal of scopolamine-induced amnesia
[1]; EMATE alone 10 mg/Kg IP daily for 10 days before acquisition trial
  crossover latency: 263.1 ± 69.7 s
[1]; EMATE alone 10 mg/Kg IP daily for 15 days before acquisition trial
  crossover latency: 297.0 ± 88.7 s
[1]; EMATE alone, single dose 10 mg/Kg IP four hours before acquisition trial
  effect on crossover latency: failed to increase crossover latency

## C[C@]12CC[C@H](OS(=O)(=O)O)CC1=CC[C@@H]1[C@@H]2CC[C@]2(C)C(=O)CC[C@@H]12 [DHEAS, dehydroepiandrosterone sulfate, reference compound]
[1]; DHEAS 20 mg/Kg IP one hour before acquisition trial, scopolamine 1 mg/Kg IP, latency 24 hours later
  crossover latency (maximum effect): 299.4 ± 83.5 s
[1]; DHEAS 5-70 mg/Kg IP one hour before acquisition trial, scopolamine 1 mg/Kg IP 30 minutes before, bell shaped dose response curve
  reversal of scopolamine-induced amnesia: significant (p≤0.05), reversal of scopolamine-induced amnesia

Source: patent publication US5556847A, “Methods of effecting memory enhancement mediated by steroid sulfatase inhibitors” (Duquesne University of the Holy Ghost, priority 1994, dated 1996)
